Laboratory results taken from article PMC3886901, “Vestigialization of an Allosteric Switch: Genetic and Structural Mechanisms for the Evolution of Constitutive Activity in a Steroid Hormone Receptor” (PLoS Genetics, 2014).
pEC50: −log10 of the molar value.

System: T1, AncLophoSR (ancestral lophotrochozoan steroid receptor, ML reconstruction; GenBank KC261633)
T1 construct: resurrected LBD with the hinge domain and C-terminus of CgER, Gal4-DBD fusion
Assay: Gal4-DBD fusion dual luciferase reporter assay in transfected CHO-K1 cells
Format: cell-based, synthetic construct

## C[C@]12CC[C@@H]3c4ccc(O)cc4CC[C@H]3[C@@H]1CC[C@@H]2O [17β-estradiol]
  pEC50: 7.92
